Values quoted from earlier work in patent publication US12324860B2, “Methods of treating central nervous system disorders via administration of nanoparticles of an mTOR inhibitor and an albumin” (Abraxis BioScience, LLC, priority 2018, dated 2025).
Where two headings read alike, the source gives them in different places. Blank lines part the entries; values can stand above or below the molecule they belong to.

Key:
[1] = in vivo
[2] = preclinical studies
[3] = retrospective analysis (Lorgis et al. 2012)

Molecule: COc1ccc(COc2cc3oc(=O)c4cc(C(C)O)ccc4c3cc2OC)cc1 (stereo not shown) [Palomid 529]
- brain penetration [1]: good brain penetration
- affinity for ABCB1/ABCG2 (ABCB1/ABCG2): lacks affinity

- brain penetration [2]: poor brain penetration
Molecule: CO[C@H]1C[C@@H]2CC[C@@H](C)[C@@](O)(O2)C(=O)C(=O)N2CCCC[C@H]2C(=O)O[C@H]([C@H](C)C[C@@H]2CC[C@@H](OCCO)[C@H](OC)C2)CC(=O)[C@H](C)/C=C(\C)[C@@H](O)[C@@H](OC)C(=O)[C@H](C)C[C@H](C)/C=C/C=C/C=C/1C [everolimus]

Molecule: bevacizumab: recombinant humanized anti-VEGF antibody
- PFS and OS with low dose intensity (<5 mg/kg/week) versus normal dose intensity at 10 mg/kg [3]: improved PFS and OS
